Marks after values point to notes of the source that are not given here. No end group written: not given here.
B1: IFN-γ: recombinant mouse interferon-γ, Beijing Biotech Inc.; positive control immunostimulant (protein, UniProt P01580 23-155, looked up)
Interferon gamma: HGTVIESLESLNNYFNSSGIDVEEKSLFLDIWRNWQKDGDMKILQSQIISFYLRLFEVLKDNQAISNNISVIESHLITTFFSNSKAKKDAFMSIAKFEVNNPQVQRQAFNELIRVVHQLLPESSLRKRKRSRC

Columns and labels:
T lymphocyte [1] = test: T lymphocyte transformation test (ConA, MTT) on spleen cells of treated mice; format: in vivo, BALB/c mice; set-up: key: OD of assay wells divided by OD of control wells; conditions: IFN-γ and IL-2 groups 3×10^5 IU/kg/day, X ± SD
Procedure: (§1) The above substances were all dissolved in 0.5 ml saline and injected intraperitoneal (i.p.) for 15 continuous days, once per day.
Ten mice per group. The day after the last test substance administration, the mice were sacrificed by cervical dislocation. The spleen was isolated aseptically and manually dispersed in cold D-Hank's solution using an injection needle. The dispersed cell suspension was further sieved through a 100 gauge 150 μm diameter stainless steel sieve. After centrifugation at 200 g for 10 minutes, the supernatant was discarded. The cell pellet was re-suspended in 10 volume of Tris-NH4Cl buffer and then kept standing still for 10 minutes at room temperature. The suspended cells were collected by centrifugation at 150 g for 10 minutes. The cells were washed 2-4 times with cold D-Hank's solution by re-suspending and collecting by centrifugation with condition as described above. The washed cells were then diluted to the desired cell densities by RPMI-1640 culture medium, containing 10% fetal bovine serum.
(§2) Spleen cells of density 1×10^6/ml were placed onto a 96 wells cell culture plate, 100 μl/well, three parallel wells each of the assay sample and control sample per mouse. To the assay wells, 100 μl/well ConA of 100 μg/ml in RPMI-1640 was added, and 100 μl/well plain RPMI-1640 was used for the controls. The cells were incubated for 66 hrs at 37° C., 5% CO2. The cells were then pelleted by centrifugation at 150 g for 10 minutes.
50 μl/well MTT of 1 mg/ml in RPMI-1640 was added to the cell pellet and the cells re-suspended by shaking for 2 minutes. The incubation was continued for 4 hours. The supernatant was discarded after centrifugation at 150 g for 10 minutes. 120 μl 40 mM HCl-2-propanol was added to the cell pellet and shaken for 3 minutes. to obtain OD570nm of each well referenced at 630 nm. An ELISA reader was used
Each mouse formed three assay wells and three control wells. The Stimulation Index (SI) of each mouse was obtained by first deriving the average OD of the three parallel wells, then dividing the value of the assay wells by the control wells.

T lymphocyte [2] = test: T lymphocyte IL-2 secretion test (HT-2 cell bioassay of ConA supernatant); format: in vivo, BALB/c mice; conditions: IFN-γ and IL-2 groups 3×10^5 IU/kg/day, X ± SD
Procedure: as §1, §2
HT-2 cells at log phase were collected by centrifugation at 150 g for 10 minutes, and washed three times with cold Hank's solution by re-suspension and centrifugation. The collected HT-2 cells were re-suspended in RPMI-1640 and incubated at 37° C., 5% CO2 for 30 minutes. The cells were further washed twice with RPMI-1640 by re-suspension and centrifugation, and re-suspended to final concentration of 2×10^5/ml with RPMI-1640.
rIL-2 was diluted to the following concentration with RPMI-1640: 500 IU/ml, 250 IU/ml, 125 IU/ml, 62.5 IU/ml, 31.25 IU/ml, and […].
A 96 well cell culture plate was set up with three parallel wells per combination:
Negative control: 100 μl RPMI-1640+100 μl HT-2 cell suspension
rIL-2 standard: 100 μl rIL-2 solution+100 μl HT-2 cell suspension
Assay well: 100 μl diluted supernatant+100 μl HT-2 cell suspension
The plate was incubated at 37° C., 5% CO2 for 68 hours, then centrifuged at 150 g for 15 minutes and the supernatant removed. 100 μl 0.5 mg/ml MTT in RPMI-1640 without phenolsulfonphthalein was added into each well. After shaking for 3-4 minutes to re-suspend the cells, continue to incubate for another 4 hours. Samples were then centrifuged at 150 g for 15 minutes and the supernatant was removed. To each well, 120 μl 40 mM HCl-2-propanol was added, mixed for 3-4 minutes and OD analyzed at 570 nm, referenced at 630 nm with an ELISA plate reader.
The average OD of the three parallel wells of each dilution was taken and plotted against concentration on a semi-log paper, concentration on the X-axis. The concentration at 50% OD saturation was obtained for both the testing supernatant and rIL-2.

anti-SRBC antibody = test: humoral immunity (SRBC hemolysis index) of mice bearing transplanted B16 melanoma; format: in vivo, C57BL/6 mice; set-up: key: index = (OD540 of test sample ÷ reference OD540) × 500
Procedure: Intraperitoneal injection, once per day. […] Treatment of all groups with testing substance lasted for 30 days or until the animal died unless otherwise specified.
Stock B16 mouse melanoma cells were incubated in DMEM/F12 medium supplemented with 10% fetal bovine serum, 37° C./5% CO2 for 72 hrs, then washed 3-4 times with Hank's solution. The cell concentration was adjusted to 1×10^5 per ml with Hank's solution and 0.1 ml of the cell suspension was injected via the tail vein into the testing mice to generate the B16 melanoma bearing animal model. Treatment with test substance started as described in section Method 1.
Sheep red blood cells (SRBC) were prepared by collecting blood from the cervical vein and put into a sterile flask with glass beads. The flask was shaken for 3 minutes and the blood then mixed with Alsever solution (glucose 2.05 g, NaCl 0.4 g, […] 0.8 g, adjust to 100 ml with distilled water) and stored at 4° C. Immediately before use, samples were centrifuged at 130 g, 5 minutes to collect the SRBC. The cells were washed two times by re-suspension and centrifugation in normal saline. Then the cell pellet was collected by centrifugation at 180 g for 10 minutes and re-suspended in saline to make the final working SRBC suspension, 2% (v/v).
Complement was prepared by adding 10 volumes of fresh Cavy serum into one volume centrifuge packed SRBC, and then gently shaken for 30 minutes at 4° C. The SRBC was removed by centrifugation at 200 g for 10 minutes. 10 volumes of normal saline were added to obtain the working complement solution.
On the testing animals, on the 27th date of test substance treatment, 0.2 ml of the working SRBC cell suspension was injected into each animal to raise antibody. On the day after the last test substance administration, blood was collected from the eye canthus and left at room temperature for one hour for serum exudation. After centrifugation at 200 g for 10 minutes, the collected serum was diluted by 500 times with normal saline.
To 1 ml diluted mouse serum of each mouse, 0.5 ml SRBC suspension was added. Ice cold. Then 1 ml working complement solution was added and incubated at 37° C. water bath for 10 minutes. Reactions were terminated by ice cold. Samples were then centrifuged at 200 g for 10 minutes to obtain the supernatant.
To 1 ml of this supernatant, 3 ml Drabkin solution was added and left at room temperature for 10 minutes. OD540nm was obtained.
Reference OD540nm was obtained by mixing 0.25 ml SRBC suspension with Drabkin solution to 4 ml and placed at room temperature for 10 minutes before OD540nm was taken. Hemolysis index=(OD540nm of test sample÷reference OD540 nm)×500 6.2 After the Humoral Immunity Study, the Mice were Killed by Cervical Vertebra Dislocation. Postmortum Examination of the Animals was Performed. The Pathological Changes were Recorded, and the Numbers of Melanoma Lung Metastasis Foci were Counted. Results 1. The Effect of Peptide on the Cellular Phagocytosis in BALB/c Mice with Transplanted S180 Sarcoma (Method 2.1)

[3] = peptide 0.5 μg/kg/day i.p. 15 days
[4] = peptide 5 μg/kg/day i.p. 15 days
[5] = peptide 50 μg/kg/day i.p. 15 days
[6] = peptide 500 μg/kg/day i.p. 15 days

Row | Molecule | stimulation index (T lymphocyte transformation) (T lymphocyte [1]; [3]) | activity of T lymphocyte in secreting IL-2 (T lymphocyte [2]; [3]) | Hemolysis index (anti-SRBC antibody; 0.5 μg/kg i.p. once per day) | Hemolysis index (anti-SRBC antibody; 500 μg/kg i.p. once per day) | stimulation index (T lymphocyte transformation) (T lymphocyte [1]; [4]) | stimulation index (T lymphocyte transformation) (T lymphocyte [1]; [5]) | activity of T lymphocyte in secreting IL-2 (T lymphocyte [2]; [5]) | Hemolysis index (anti-SRBC antibody; 5 μg/kg i.p. once per day) | Hemolysis index (anti-SRBC antibody; 50 μg/kg i.p. once per day) | stimulation index (T lymphocyte transformation) (T lymphocyte [1]; [6]) | activity of T lymphocyte in secreting IL-2 (T lymphocyte [2]; [6]) | activity of T lymphocyte in secreting IL-2 (T lymphocyte [2]; [4]) | Hemolysis index (anti-SRBC antibody; 3 × 10^5 IU/kg i.p. once per day)
1 | RVAPEEHPTL [CMS011] | 1.6 ± 0.4 | 101 ± 19*^@^ IU | 32.0 ± 14.7 | 34.4 ± 19.4 |  |  |  |  |  |  |  |  | 
2 | PTTKTYFPHF [CMS001] |  |  | 51.0 ± 16.2*^$ | 36.0 ± 10.2*^$ | 1.7 ± 0.2 | 2.2 ± 0.5*^@^ | 60 ± 10 IU | 41.3 ± 17.7*^$ | 45.0 ± 31.9*^$ |  |  |  | 
3 | IGMESAGIHETTY [CMS016] |  |  |  | 43.3 ± 29.9 |  |  |  |  |  |  |  |  | 
4 | Tyr Ser Leu (YSL; listed as Sus scrofa) [CMS024] |  |  | 43.0 ± 10.7*^$ | 30.1 ± 10.0 |  |  |  | 42.2 ± 11.8*^$ | 27.8 ± 9.1 |  |  |  | 
5 | VGMGQKDSY [CMS019] |  |  | 42.0 ± 12.0*^$ |  |  |  |  | 35.4 ± 15.1*^$ | 28.3 ± 7.6 | 1.8 ± 0.3 |  |  | 
6 | LRVAPEEHPTL [CMS009] |  |  |  |  |  |  |  |  |  | 1.7 ± 0.2 | 114 ± 13*^@^ IU |  | 
7 | VAPEEHPTLLTEAPLNPK [CMS010] | 1.7 ± 0.3 | 66 ± 11 IU | 34.9 ± 10.5*^$ | 50.1 ± 16.7*^$ |  |  |  | 51.0 ± 14.6*^$ | 39.6 ± 7.7*^$ | 2.0 ± 0.3*^@^ | 125 ± 17*^@^ IU |  | 
8 | Pro Glu Asn Phe (PENF; listed as Sus scrofa) [CMS034] |  | 85 ± 10*^ IU | 50.8 ± 18.4*^$ |  | 1.5 ± 0.2 |  |  | 43.0 ± 11.7*^$ | 30.2 ± 10.9 |  |  |  | 
9 | FNFVPP [CMS003] |  |  | 61.6 ± 26.9*^$ | 35.9 ± 13.0*^$ | 1.6 ± 0.2 | 2.2 ± 0.5*^@^ | 86 ± 9*^ IU | 37.2 ± 15.9*^$ | 38.7 ± 13.5*^$ |  |  |  | 
10 | Phe Val Asn Asp (FVND; listed as Sus scrofa) [CMS035] |  |  |  | 40.5 ± 25.8 |  |  |  | 38.9 ± 21.2*^$ | 44.7 ± 22.7*^$ |  |  |  | 
11 | PSIVGRPRHQGVM [CMS015] |  |  |  |  |  |  |  |  |  | 1.9 ± 0.3*^@^ | 85 ± 17*^ IU |  | 
12 | KAVGHLDDLPGAL [CMS008] | 1.7 ± 0.3 |  | 42.7 ± 18.4*^$ | 50.1 ± 17.8*^$ |  |  |  | 38.9 ± 12.0*^$ | 37.1 ± 16.7*^$ |  |  |  | 
13 | B1 | 1.6 ± 0.2 | 87 ± 15 IU |  |  | 1.6 ± 0.2 | 1.7 ± 0.2 | 99 ± 16 IU |  |  | 1.6 ± 0.2 | 100 ± 18 IU | 96 ± 14 IU | 60.5 ± 17.4

From patent publication US7718768B2, “Biologically active peptide [sequence]” (CMS Peptides Patent Holding Company Limited, priority 2001, dated 2010)
